Assay [1] concerns MOLM-14 D835Y cells, FLT3 ITD and FLT3 D835Y. The experiment in a line: Cell proliferation assay (CellTiter-Glo), MOLM-14 D835Y. In kind it is cell-based. The settings on record: Homo sapiens, 72 h, 3d-Growth, GMean. From the text:
(§1) The FLT3 inhibitors may be assessed using the MOLM-14, Acute Myeloid Leukemia cell line that endogenously expresses FLT3 ITD or derivatives of the human FLT3 AML cell line which acquired the D835Y (activation loop) of F691L (gatekeeper) mutation after selection in escalating doses of the FLT3 Inhibitor AC220. FLT3 inhibitors may also be assessed using cells that are engineered to express mutant FLT3. For engineered cells, murine Ba/F3 cells were transfected with full-length FLT3 ITD/D835Y mutations. The parental BA/F3 cells are dependent upon Interleukin-3 (IL-3) for survival, and introduction of the FLT3 constructs rendered these cells dependent upon FLT3 kinase activity when cultured in the absences of IL-3. Engineered BA/F3 cell growth assays can be performed in either the […] of IL-3, to assess the compound inhibition of FLT3 or to detect the presence of off-target activity, respectively. Inhibitors of FLT3 kinase activity reduce or eliminate the FLT3 oncogenic signaling, resulting in reduced cell proliferation. This inhibition is measured as a function of compound concentration to asses IC50 values.
(§2) Cell lines used in proliferation assays are as follows in Table 3:
(§3) Cells were seeded at 1×10^4 cells per well of a 96 well cell culture plate in 50 μl of cell culture medium. Compounds were dissolved in DMSO, typically at a concentration of 0.5 mM and were serially diluted 1:3 for a total of eight points and added to the cells to final concentrations of […], 0.0041, 0.0014 and 0.00046 μM in 100 μl cell culture medium (final concentration 0.2% DMSO). […] The cells were incubated at 37° C., 5% CO2 for three days. CellTiter-Glo Buffer (Promega Cell Viability Assay catalog #G7573) and substrate were equilibrated to room temperature, and enzyme/substrate Recombinant Firefly Luciferase/Beetle Luciferin was reconstituted. The cell plates were equilibrated to room temperature for 30 minutes, then lysed by addition of an equivalent volume of the Celltiter-Glo Reagent. The plate was mixed for 10 minutes on a plate shaker to lyse the cells. The plates were read on a Tecan M1000 using Luminescence protocol modified to read 0.1 s per well. The luminescence reading assesses the ATP content, which correlates directly with cell number such that the reading as a function of compound concentration was used to determine the IC50 value.
Background: ATP-based viability assays read luminescence as a measure of living cells.

Assay [2] relates to MOLM-14 F691L cells, FLT3 ITD and FLT3 F691L. The experiment in a line: Cell proliferation assay (CellTiter-Glo), MOLM-14 F691L. In kind it is cell-based. The settings on record: Homo sapiens, 72 h, 3d-Growth, GMean.
Excerpt: as §1, §2, §3

In a further assay the target is T1, FLT3-D835Y (Homo sapiens, UniProt P36888, D835Y).
T1 construct: purchased Invitrogen PV3967
T1 sequence (P36888 27-993 D835Y): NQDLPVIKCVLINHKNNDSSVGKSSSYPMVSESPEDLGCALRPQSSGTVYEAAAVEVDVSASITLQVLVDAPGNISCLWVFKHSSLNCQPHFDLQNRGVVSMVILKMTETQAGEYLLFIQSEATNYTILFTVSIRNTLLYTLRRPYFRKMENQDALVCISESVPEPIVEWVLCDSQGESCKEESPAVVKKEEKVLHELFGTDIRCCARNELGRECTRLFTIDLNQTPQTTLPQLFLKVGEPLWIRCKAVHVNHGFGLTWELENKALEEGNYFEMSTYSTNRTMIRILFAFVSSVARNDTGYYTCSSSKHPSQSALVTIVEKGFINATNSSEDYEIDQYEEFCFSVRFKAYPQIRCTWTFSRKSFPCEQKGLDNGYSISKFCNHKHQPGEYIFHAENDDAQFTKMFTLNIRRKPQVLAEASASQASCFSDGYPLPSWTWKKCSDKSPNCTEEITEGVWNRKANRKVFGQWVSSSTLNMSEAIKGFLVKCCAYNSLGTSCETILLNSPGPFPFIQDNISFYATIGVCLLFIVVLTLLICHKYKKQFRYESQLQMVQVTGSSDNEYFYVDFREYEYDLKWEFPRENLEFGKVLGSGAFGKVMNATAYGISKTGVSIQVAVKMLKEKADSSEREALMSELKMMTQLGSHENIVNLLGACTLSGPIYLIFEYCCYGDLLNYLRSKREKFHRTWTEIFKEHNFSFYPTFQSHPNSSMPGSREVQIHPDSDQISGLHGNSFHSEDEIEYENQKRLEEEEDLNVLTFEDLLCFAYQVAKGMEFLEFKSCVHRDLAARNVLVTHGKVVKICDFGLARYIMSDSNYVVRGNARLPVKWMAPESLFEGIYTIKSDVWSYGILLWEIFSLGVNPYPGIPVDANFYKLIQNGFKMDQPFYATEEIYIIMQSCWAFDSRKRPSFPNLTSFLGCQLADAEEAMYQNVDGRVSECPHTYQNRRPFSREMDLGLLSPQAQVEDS
The assay is described as follows: AlphaScreen kinase assay with recombinant enzyme, FLT3-D835Y. It counts as biochemical. The settings on record: 8pt, GMean. Here is the method: (§4) In order to determine the effect of compounds on FLT3 catalytic activity, kinase assays using recombinant enzymes and AlphaScreen® technology have been established. The catalytic activity of c-kit activity was also measured to determine selectivity of the compounds. When the kinases are catalytically active, they phosphorylate a biotinylated peptide substrate on tyrosine residues. Using AlphaScreen® technology, the ability of the compounds to affect the catalytic activity of the kinases can be measured quantitatively. The peptide substrate is immobilized by the AlphaScreen® Streptavidin Donor beads and, upon phosphorylation by a tyrosine kinase, can bind to AlphaScreen® Anti-Phosphotyrosine (PY20) Acceptor beads. Upon excitation of these beads with laser light at 680 nm, singlet oxygen is produced. This singlet oxygen is rapidly quenched, unless the AlphaScreen® Anti-Phosphotyrosine (PY20) Acceptor beads are in close proximity, in which case a proximity signal can be measured at 580 nm. In the presence of catalytic activity, there is a very strong proximity signal. Selective kinase inhibitors affect a decrease in this proximity signal through a decrease in tyrosine phosphorylation of the peptide substrate.
(§5) The assay was performed as summarized below.
(§6) Poly (Glu4-Tyr) Peptide, biotin conjugate [Biotin-GG(EEEEY)10EE] (SEQ ID NO: 4)
(§7) Final concentration=30 nM
(§8) Final concentration for IC50 determination=10 μM (FLT3-D835Y or FLT3-ITD) or 100 μM (c-KIT)
(§9) AlphaScreen® Phosphotyrosine (PY20) Assay Kit
(§10) Final concentration=10 μg/mL
(§11) Dilute compounds in DMSO to 20× final concentration.
(§12) Add 1 μl of compound to each well of 384 well reaction plate (Perkin Elmer #6005359).
(§13) Mix enzyme and Poly (Glu4-Tyr) Peptide substrate at 1.33× final concentration in assay buffer.
(§14) Mix ATP at 5× final concentration in assay buffer.
(§15) Add 15 μL enzyme/substrate mixture to the reaction plate.
(§16) Add 4 μL of ATP to the reaction plate.
(§17) Mix Streptavidin Donor beads at 6× final concentration in Stop/Detection buffer.
(§18) Add 5 μL Streptavidin Donor beads to the reaction plate. Centrifuge 1 minute, shake to mix, and incubate at room temperature for 20 minutes.
(§19) Mix Anti-Phosphotyrosine (PY20) Acceptor beads at 6× final concentration in Stop/Detection buffer.
(§20) Add 5 μL Anti-Phosphotyrosine (PY20) beads to the reaction plate.
(§21) Centrifuge 1 minute, shake to mix, and incubate at room temperature for 60 minutes.
(§22) Read plate on Wallac EnVision™ 2103 Multilabel Reader.
(In general: Bead proximity is the source of the signal in Alpha formats.)

The target of assay [3] is T2, BA/F3-FLT3-ITD + D835Y cells (Homo sapiens, UniProt P36888, D835Y, cells depend on it, form not given).
T2 sequence (P36888 1-993 D835Y): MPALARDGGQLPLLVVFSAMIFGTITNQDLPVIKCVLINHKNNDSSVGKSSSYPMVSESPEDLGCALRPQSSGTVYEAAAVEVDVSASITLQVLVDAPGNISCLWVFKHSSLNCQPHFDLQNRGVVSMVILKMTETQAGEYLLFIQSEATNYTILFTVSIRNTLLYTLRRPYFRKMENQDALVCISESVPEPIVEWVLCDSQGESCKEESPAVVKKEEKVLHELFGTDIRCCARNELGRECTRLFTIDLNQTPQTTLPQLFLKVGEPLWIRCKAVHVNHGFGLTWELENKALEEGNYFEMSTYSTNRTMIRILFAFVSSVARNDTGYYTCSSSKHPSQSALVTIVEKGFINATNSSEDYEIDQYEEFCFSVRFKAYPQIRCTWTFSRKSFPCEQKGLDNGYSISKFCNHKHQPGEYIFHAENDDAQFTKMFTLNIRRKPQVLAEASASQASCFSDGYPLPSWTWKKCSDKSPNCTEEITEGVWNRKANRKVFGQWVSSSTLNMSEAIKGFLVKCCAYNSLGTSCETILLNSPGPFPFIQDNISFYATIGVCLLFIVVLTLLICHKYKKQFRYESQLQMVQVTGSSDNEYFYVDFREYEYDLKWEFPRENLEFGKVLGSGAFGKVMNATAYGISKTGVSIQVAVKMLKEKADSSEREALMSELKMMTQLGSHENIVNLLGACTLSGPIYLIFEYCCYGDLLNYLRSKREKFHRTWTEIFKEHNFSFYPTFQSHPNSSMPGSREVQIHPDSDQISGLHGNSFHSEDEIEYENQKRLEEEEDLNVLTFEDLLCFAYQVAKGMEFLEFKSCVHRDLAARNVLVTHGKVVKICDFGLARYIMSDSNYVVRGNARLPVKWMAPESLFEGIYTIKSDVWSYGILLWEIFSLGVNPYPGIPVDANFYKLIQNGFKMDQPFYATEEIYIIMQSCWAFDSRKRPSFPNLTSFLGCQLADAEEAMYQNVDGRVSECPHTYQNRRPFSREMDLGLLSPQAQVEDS
The experiment in a line: Cell proliferation assay (CellTiter-Glo), engineered BA/F3 cells. It counts as cell-based, murine. The settings on record: BaF3 FLT3 ITD/D835Y cells, 3d-Growth; read-out: BaF3_FLT3 ITD/D835Y 3d-Growth: IC50.
Excerpt: as §1, §2, §3

Another assay deals with T3, c-KIT (Homo sapiens, UniProt P10721).
T3 construct: purchased Millipore 14-559K
The assay is described as follows: AlphaScreen kinase assay with recombinant enzyme, c-KIT. It counts as biochemical. The settings on record: 100ATP, 8pt, GMean. How it is done:
as §4, §5, §6, §7, §8, §9, §10, §11, §12, §13, §14, §15, §16, §17, §18, §19, §20, §21, §22

As usually defined, the pIC50 is the negative decadic logarithm of the IC50, by convention in mol/L.

pIC50: −log10 of the molar value.

T3 sequence (P10721 26-976): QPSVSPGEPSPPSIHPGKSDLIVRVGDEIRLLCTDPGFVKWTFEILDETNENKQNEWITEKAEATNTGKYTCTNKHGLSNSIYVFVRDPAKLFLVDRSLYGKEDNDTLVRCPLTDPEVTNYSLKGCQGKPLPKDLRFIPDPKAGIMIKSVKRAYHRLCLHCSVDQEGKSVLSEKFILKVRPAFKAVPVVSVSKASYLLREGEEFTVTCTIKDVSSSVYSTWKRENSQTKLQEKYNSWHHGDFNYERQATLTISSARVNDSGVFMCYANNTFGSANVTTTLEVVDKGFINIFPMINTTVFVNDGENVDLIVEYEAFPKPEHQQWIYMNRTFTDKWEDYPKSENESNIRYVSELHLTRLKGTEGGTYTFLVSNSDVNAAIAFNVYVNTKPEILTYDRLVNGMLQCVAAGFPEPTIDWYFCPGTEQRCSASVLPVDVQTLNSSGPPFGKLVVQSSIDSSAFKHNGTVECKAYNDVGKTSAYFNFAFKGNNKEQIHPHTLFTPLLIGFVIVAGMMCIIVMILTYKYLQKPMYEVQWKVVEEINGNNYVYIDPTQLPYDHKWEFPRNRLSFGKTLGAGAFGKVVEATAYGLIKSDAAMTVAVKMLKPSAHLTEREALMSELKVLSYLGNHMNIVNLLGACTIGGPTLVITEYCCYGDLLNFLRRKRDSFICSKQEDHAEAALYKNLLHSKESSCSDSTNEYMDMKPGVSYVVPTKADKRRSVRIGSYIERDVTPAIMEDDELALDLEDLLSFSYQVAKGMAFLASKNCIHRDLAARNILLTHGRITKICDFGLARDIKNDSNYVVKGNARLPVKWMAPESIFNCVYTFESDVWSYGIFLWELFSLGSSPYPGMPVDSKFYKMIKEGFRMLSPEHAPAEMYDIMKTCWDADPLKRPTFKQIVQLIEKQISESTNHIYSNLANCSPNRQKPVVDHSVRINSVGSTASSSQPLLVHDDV

Consider `N#CCCCNC(=O)c1cccc(-c2cnc3[nH]c(-c4ccccc4)cc3c2)n1` [Compound P-0128, N-(3-cyanopropyl)-6-(2-phenyl-1H-pyrrolo[2,3-b]pyridin-5-yl)pyridine-2-carboxamide], for which the pIC50 (in assay [1]; in assay [2]; at FLT3-D835Y) was 5.00 to 10.00 in each case.

For the compound `CC(C)(C#N)NC(=O)c1cccc(-c2cnc3[nH]c(-c4cnn(C5CCNCC5)c4)c(Cl)c3c2)n1` [Compound P-0207, 6-[3-chloro-2-[1-(4-piperidyl)pyrazol-4-yl]-1H-pyrrolo[2,3-b]pyridin-5-yl]-N-(1-cyano-1-methyl-ethyl)pyridine-2-carboxamide], the pIC50 (in assay [1]; in assay [2]; at FLT3-D835Y) was 5.00 to 10.00 throughout.

For the compound `CC(C)(C#N)CNS(=O)(=O)c1cccc(-c2cnc3[nH]c(-c4ccccc4)cc3c2)n1` [Compound P-0108, N-(2-cyano-2-methyl-propyl)-6-(2-phenyl-1H-pyrrolo[2,3-b]pyridin-5-yl)pyridine-2-sulfonamide], the pIC50 was 5.00 to 10.00 in assay [1] and 4.00 to 4.30 at c-KIT. Besides, the GI50 in assay [3] was in the range of 0.0001 to 10 µM.

For the origin of these results see US9938273B2 (Plexxikon Inc., priority 2015, dated 2018).
